From patent US20240025883A1, “PYRIMIDIN-2-YL SULFONAMIDE DERIVATIVES” (Hoffmann-La Roche Inc., priority 2021, published 2024)
pIC50: −log10 of the molar value.

Each compound was assayed against human GPR17 short isoform (Homo sapiens (Human), UniProt Q13304) (assay: GPR17 cAMP assay (hGPR17 cAMP, antagonist mode against EC80 of MDL29,951)). Details: CHO-K1 cells stably expressing human GPR17 short isoform; EC80 of agonist MDL29,951; forskolin 15 μM.
Format: cell-based
Experimental: GPR17 cAMP Assay Protocol:
CHO-K1 cells stably expressing vector containing untagged human GPR17 short isoform (Roche) were cultured at 37° C./5% CO2 in DMEM (Dulbecco's Modified Eagle Medium):F-12 (1:1) supplemented with 10% foetal bovine serum and 400 μg/ml Geneticin.
Changes in intracellular cyclic adenosine monophosphate (cAMP) levels were quantified using the Nano-TRF Detection Assay kit (Roche Diagnostics, Cat. No. 05214386001). This assay allows for direct cAMP quantification in a homogeneous solution, cAMP is detected based on time-resolved fluorescence energy transfer (TR-FRET) and competitive binding of ruthenylated cAMP and endogenous cAMP to an anti-cAMP monoclonal antibody labeled with AlexaFluor-700. The Ruthenium complex serves as the FRET donor and transfers energy to AlexaFluor-700. The FRET signal is inversely proportional to the cAMP concentration.
CHO-GPR17S cells were detached with Accutase and resuspended in assay buffer consisting of Hank's Balanced Salt Solution (HBSS), 10 mM HEPES (4-(2-hydroxyethyl) piperazine-1-ethanesulfonic acid solution) and 0.1% bovine serum albumin (pH 7.4). The cells were seeded in black 384-well plates (Corning) at a density of 10,000 cells/20 μl assay buffer until the addition of compounds.
Test antagonist compounds were serially diluted in dimethyl sulfoxide (DMSO) and spotted in 384-well plates. The compounds were then diluted in HBSS buffer supplemented with an EC80 concentration of MDL29,951 (3-(2-Carboxy-4,6-dichloroindol-3-yl)propionic acid) (GPR17 agonist) plus 3-Isobutyl-1-methylxanthine (IBMX) (0.5 mM final concentration) and added to the cells at room temperature. Forskolin (15 μM final concentration) was added 5 minutes after the test compounds and the cells were incubated at room temperature for 30 minutes. The assay was stopped by adding cAMP detection mix (containing detergents for cell lysis) for 90 minutes at room temperature.
Cellular cAMP was measured using a Paradigm reader (Molecular Devices). The raw data was used to calculate the FRET signal based on the assay's P-factor as per cAMP kit instructions. The data was normalized to the maximal activity of a reference antagonist and dose response curves were fitted to the percent activity of the test compounds using a sigmoidal dose response model (Genedata Screener).

Sequence of human GPR17 short isoform (Q13304 29-367): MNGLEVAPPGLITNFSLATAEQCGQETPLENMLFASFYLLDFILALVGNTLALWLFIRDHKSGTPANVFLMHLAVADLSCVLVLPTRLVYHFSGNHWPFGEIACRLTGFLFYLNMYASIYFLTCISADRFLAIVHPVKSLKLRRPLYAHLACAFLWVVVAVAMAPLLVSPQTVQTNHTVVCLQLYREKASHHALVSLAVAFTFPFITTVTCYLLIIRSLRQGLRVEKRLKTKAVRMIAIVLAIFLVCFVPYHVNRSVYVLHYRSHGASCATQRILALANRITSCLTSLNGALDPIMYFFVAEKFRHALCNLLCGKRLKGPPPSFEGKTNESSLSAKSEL

Point of comparison: COc1nc(NS(=O)(=O)c2c[nH]c3cc(Cl)ccc23)ncc1COC(F)F [Example 262, 6-chloro-N-[5-(difluoromethoxymethyl)-4-methoxy-pyrimidin-2-yl]-1H-indole-3-sulfonamide], pIC50 7.40. Against it:
- COc1nc(NS(=O)(=O)c2c[nH]c3c(F)c(Cl)ccc23)ncc1OCCF [Example 2, 6-chloro-7-fluoro-N-[5-(2-fluoroethoxy)-4-methoxy-pyrimidin-2-yl]-1H-indole-3-sulfonamide] — within 0.2 log units, 7.44
- COc1nc(NS(=O)(=O)c2c[nH]c3nc(Cl)ccc23)ncc1CCC(F)F [Example 204, 6-chloro-N-[5-(3,3-difluoropropyl)-4-methoxy-pyrimidin-2-yl]-1H-pyrrolo[2,3-b]pyridine-3-sulfonamide] — within 0.2 log units, 7.54
- COc1nc(NS(=O)(=O)c2c[nH]c3nc(Cl)ccc23)ncc1OCC(F)F [Example 170, 6-chloro-N-[5-(2,2-difluoroethoxy)-4-methoxy-pyrimidin-2-yl]-1H-pyrrolo[2,3-b]pyridine-3-sulfonamide] — 0.61 log units lower, 6.79
- CSc1nc(NS(=O)(=O)c2c[nH]c3cc(Cl)ccc23)ncc1OCC(F)F [Example 35, 6-chloro-N-[5-(2,2-difluoroethoxy)-4-methylsulfanyl-pyrimidin-2-yl]-1H-indole-3-sulfonamide] — 1.08 log units lower, 6.32
- COc1nc(NS(=O)(=O)c2c[nH]c3nc(C(F)F)ccc23)nc(OC)c1CCC#N [Example 239, N-[5-(2-cyanoethyl)-4,6-dimethoxy-pyrimidin-2-yl]-6-(difluoromethyl)-1H-pyrrolo[2,3-b]pyridine-3-sulfonamide] — within 0.2 log units, 7.34
- COc1nc(NS(=O)(=O)c2csc3cc(C)ccc23)ncc1OCCF [Example 159, N-[5-(2-fluoroethoxy)-4-methoxy-pyrimidin-2-yl]-6-methyl-benzothiophene-3-sulfonamide] — 0.74 log units lower, 6.66
- COc1nc(NS(=O)(=O)c2c[nH]c3c(F)c(Cl)ccc23)ncc1CCC#N [Example 216, 6-chloro-N-[5-(2-cyanoethyl)-4-methoxy-pyrimidin-2-yl]-7-fluoro-1H-indole-3-sulfonamide] — within 0.2 log units, 7.37
- COc1nc(NS(=O)(=O)c2c[nH]c3nc(Br)ccc23)nc(OC)c1CCC#N [Example 113, 6-bromo-N-[5-(2-cyanoethyl)-4,6-dimethoxy-pyrimidin-2-yl]-1H-pyrrolo[2,3-b]pyridine-3-sulfonamide] — 0.28 log units higher, 7.68
- COc1nc(NS(=O)(=O)c2c[nH]c3cc(F)ccc23)nc(OC)c1CCC#N [Example 259, N-[5-(2-cyanoethyl)-4,6-dimethoxy-pyrimidin-2-yl]-6-fluoro-1H-indole-3-sulfonamide] — 0.20 log units higher, 7.60
- COc1nc(NS(=O)(=O)c2c[nH]c3cc(Br)ccc23)nc(OC)c1OCCF [Example 91, 6-bromo-N-[5-(2-fluoroethoxy)-4,6-dimethoxy-pyrimidin-2-yl]-1H-indole-3-sulfonamide] — within 0.2 log units, 7.52
- COc1nc(NS(=O)(=O)c2c[nH]c3c(Br)c(Cl)ccc23)ncc1OCCF [Example 141, 7-bromo-6-chloro-N-[5-(2-fluoroethoxy)-4-methoxy-pyrimidin-2-yl]-1H-indole-3-sulfonamide] — 0.45 log units higher, 7.85
- COc1nc(NS(=O)(=O)c2c[nH]c3nc(C)ccc23)nc(OC)c1OC(F)F [Example 286, N-[5-(Difluoromethoxy)-4,6-Dimethoxy-Pyrimidin-2-Yl]-6-Methyl-1H-Pyrrolo[2,3-b]Pyridine-3-Sulfonamide] — 0.71 log units lower, 6.69
- COc1nc(NS(=O)(=O)c2c[nH]c3cc(Cl)ccc23)nc(OC)c1OC(F)(F)CO [Example 275, 6-chloro-N-[5-(1,1-difluoro-2-hydroxy-ethoxy)-4,6-dimethoxy-pyrimidin-2-yl]-1H-indole-3-sulfonamide] — 0.51 log units lower, 6.89
- COc1nc(NS(=O)(=O)c2c[nH]c3c(F)c(Br)ccc23)nc(OC)c1CCC#N [Example 243, 6-bromo-N-[5-(2-cyanoethyl)-4,6-dimethoxy-pyrimidin-2-yl]-7-fluoro-1H-indole-3-sulfonamide] — 0.65 log units higher, 8.05
- COc1nc(NS(=O)(=O)c2c[nH]c3c(OC)c(Cl)ccc23)ncc1CCC(F)F [Example 187, 6-chloro-N-[5-(3,3-difluoropropyl)-4-methoxy-pyrimidin-2-yl]-7-methoxy-1H-indole-3-sulfonamide] — 0.34 log units higher, 7.74
- COc1nc(NS(=O)(=O)c2c[nH]c3cc(F)ccc23)ncc1CC(F)F [Example 140, N-[5-(2,2-difluoroethyl)-4-methoxy-pyrimidin-2-yl]-6-fluoro-1H-indole-3-sulfonamide] — within 0.2 log units, 7.30
- COc1nc(NS(=O)(=O)c2c[nH]c3nc(Br)ccc23)ncc1CC(F)F [Example 200, 6-bromo-N-[5-(2,2-difluoroethyl)-4-methoxy-pyrimidin-2-yl]-1H-pyrrolo[2,3-b]pyridine-3-sulfonamide] — 0.22 log units lower, 7.18
- COc1nc(NS(=O)(=O)c2c[nH]c3nc(Cl)ccc23)nc(OC)c1OCC(F)F [Example 206, 6-chloro-N-[5-(2,2-difluoroethoxy)-4,6-dimethoxy-pyrimidin-2-yl]-1H-pyrrolo[2,3-b]pyridine-3-sulfonamide] — within 0.2 log units, 7.24
- CC#CCOc1cnc(NS(=O)(=O)c2c[nH]c3cc(Cl)ccc23)nc1OC [Example 175, N-(5-but-2-ynoxy-4-methoxy-pyrimidin-2-yl)-6-chloro-1H-indole-3-sulfonamide] — 0.26 log units lower, 7.14
- COc1nc(NS(=O)(=O)c2c[nH]c3cc(Cl)ccc23)nc(OC(F)F)c1Br [Example 18, N-[5-bromo-4-(difluoromethoxy)-6-methoxy-pyrimidin-2-yl]-6-chloro-1H-indole-3-sulfonamide] — 0.32 log units lower, 7.08
- CCc1cnc(NS(=O)(=O)c2c[nH]c3cc(Cl)ccc23)nc1OC [Example 15, 6-chloro-N-(5-ethyl-4-methoxy-pyrimidin-2-yl)-1H-indole-3-sulfonamide] — 0.52 log units lower, 6.88
- COc1nc(NS(=O)(=O)c2c[nH]c3c(SC)c(Cl)ccc23)ncc1CC(F)F [Example 234, 6-chloro-N-[5-(2,2-difluoroethyl)-4-methoxy-pyrimidin-2-yl]-7-(methylthio)-1H-indole-3-sulfonamide] — 0.40 log units higher, 7.80
- COc1nc(NS(=O)(=O)c2c[nH]c3c2ccc2cccnc23)ncc1CC(F)F [Example 222, N-[5-(2,2-difluoroethyl)-4-methoxy-pyrimidin-2-yl]-1H-pyrrolo[3,2-h]quinoline-3-sulfonamide] — 0.86 log units lower, 6.54
- C=CCc1c(OC)nc(NS(=O)(=O)c2c[nH]c3cc(Cl)ccc23)nc1OC [Example 56, N-(5-allyl-4,6-dimethoxy-pyrimidin-2-yl)-6-chloro-1H-indole-3-sulfonamide] — 0.49 log units higher, 7.89
- COc1nc(NS(=O)(=O)c2c[nH]c3c(SC(F)F)c(Cl)ccc23)ncc1CC(F)F [Example 199, 6-chloro-N-[5-(2,2-difluoroethyl)-4-methoxy-pyrimidin-2-yl]-7-(difluoromethylsulfanyl)-1H-indole-3-sulfonamide] — 0.70 log units higher, 8.10
- COc1nc(NS(=O)(=O)c2c[nH]c3nc(C(F)F)ccc23)nc(OC)c1OC(F)F [Example 94, N-[5-(difluoromethoxy)-4,6-dimethoxy-pyrimidin-2-yl]-6-(difluoromethyl)-1H-pyrrolo[2,3-b]pyridine-3-sulfonamide] — 0.28 log units lower, 7.12
- COc1nc(NS(=O)(=O)c2csc3nc(Br)ccc23)nc(OC)c1CCC#N [Example 151, 6-bromo-N-[5-(2-cyanoethyl)-4,6-dimethoxy-pyrimidin-2-yl]thieno[2,3-b]pyridine-3-sulfonamide] — within 0.2 log units, 7.54
- COc1nc(NS(=O)(=O)c2c[nH]c3nc(Cl)ccc23)nc(OC)c1CCC#N [Example 122, 6-chloro-N-[5-(2-cyanoethyl)-4,6-dimethoxy-pyrimidin-2-yl]-1H-pyrrolo[2,3-b]pyridine-3-sulfonamide] — within 0.2 log units, 7.44
- COc1nc(NS(=O)(=O)c2c[nH]c3cc(F)ccc23)nc(OC)c1OC(F)F [Example 256, N-[5-(difluoromethoxy)-4,6-dimethoxy-pyrimidin-2-yl]-6-fluoro-1H-indole-3-sulfonamide] — 0.73 log units lower, 6.67
- CCOc1nc(NS(=O)(=O)c2c[nH]c3cc(Cl)ccc23)nc(OC)c1Br [Example 13, N-(5-bromo-4-ethoxy-6-methoxy-pyrimidin-2-yl)-6-chloro-1H-indole-3-sulfonamide] — 0.77 log units lower, 6.63
- COc1nc(NS(=O)(=O)c2csc3nc(C(F)F)ccc23)ncc1OCCF [Example 165, 6-(difluoromethyl)-N-[5-(2-fluoroethoxy)-4-methoxy-pyrimidin-2-yl]thieno[2,3-b]pyridine-3-sulfonamide] — 1.44 log units lower, 5.96
- COc1nc(NS(=O)(=O)c2c[nH]c3c(F)c(Cl)ccc23)nc(OC)c1OCC(F)F [Example 208, 6-chloro-N-[5-(2,2-difluoroethoxy)-4,6-dimethoxy-pyrimidin-2-yl]-7-fluoro-1H-indole-3-sulfonamide] — 0.20 log units higher, 7.60
